Reference: US20160151458A1, “Use Of Unacylated Ghrelin, Fragments And Analogs Thereof As Antioxidant” (ALIZE PHARMA SAS, priority 2013, published 2016)
Ends that are not written are not given here. * marks the point of attachment. Octanoyl = CCCCCCCC(=O)*

Assays:
[1] = tested on: primary SCs; experiment: In-vitro ischemia of primary SCs from normo-perfused muscles; format: cell-based, C57BL/6J mice; conditions: SB202190 1 μmol/L added
Method: (§1) SCs were isolated from gastrocnemius muscles of C57BL/6J wild type mice subjected to ischemia or C57BL/6J mice lacking the GHSR1a and ghrelin genes (10 mice, kind gift of Professor M. Tschöp)^39. To obtain SCs, muscle samples were subjected to enzymatic digestion as described^45. In selected experiments, SCs were recovered from normo-perfused muscles and subjected to in-vitro ischemia in presence of saline, AG (1 μmol/L) or UAG (1 μmol/L). In-vitro ischemia was induced by incubating cells in DMEM+2% FCS at 5% CO2/95% N2 humidified atmosphere, yielding 1% O2 concentrations for 24 h^18. The in-vitro ischemia was also performed in the presence of SB202190 (1 μmol/L).
(§2) SC cell-cycle progression was evaluated by evaluating the percentage of PCNA-positive cells or by FACS analysis as previously described^46. The percentage of cells in each cell cycle phase was determined by ModFit LT software (Verity Software House. Inc, topsham, ME, USA). Celss proliferation was also assayed by evaluating the percentage of PCNA-positive cells by FACS analysis.
(§3) Cells were lysed and protein detection was obtained as previously described^47. Cells were lysed (50 mmol/L Tris HCl [pH 8.3], 1% Triton X-100, 10 mmol/L PMSF, 100 U/ml aprotinin, 10 μmol/L leupeptin) and protein concentrations were obtained as previously described^47. […] Densitometric analysis was used to calculate the differences in the fold induction of protein levels and normalized to tubulin, a actin or p38MAPK content. Values are reported as relative amount
(§4) Intracellular ROS production was evaluated using DCF-DA (5-(and-6)-carboxy-2′,7′-dichlorofluorescein diacetate, […] final concentration) (Molecular Probe, Invitrogen) assay as previously described^23. The formation of TBARS was determined in muscles using the OXI-TEK kit (ZeptoMetrix Corp.) and a luminescence spectrometer (Bio-Rad Laboratories, Hercules, Calif.) with excitation set at 530 nm, emission at 550 nm to measure in-vivo oxidative stress levels^33.
Total RNA was isolated using TRIzol reagent (Invitrogen) from SCs recovered from muscles of treated animals or from SCs subjected to in-vitro ischemia. miR-221/222 expression was evaluated by qRT-PCR as previously described^48. Loss-of-function experiments were performed in SCs transfected for 48 h with anti-miRNA negative control, anti-miR-221/222 antagonists (Applied Biosystem, Foxter Cyto CA, USA), according to the manufacturer's instructions^48.

[2] = tested on: unilateral hind limb ischemia in C57BL/6J mice (ischemic gastrocnemius muscle); experiment: Murine hind-limb ischemia model; format: in vivo
Method: Male C57BL/6J mice (Charles River Lab., Wilmington, Mass., USA) were anesthetized and unilateral hind limb ischemia was induced as described^42. The normo-perfused contralateral limb of each mouse was used as an internal control. After hind-limb ischemia, animals (18 mice per group) were treated by intra-peritoneal injection daily from 0 to day 21 with either saline, AG (100 μg/kg) or UAG (100 μg/kg). In selected experiments, mice received intramuscular injections of pre-miR oligonucleotides (5 mice/group). To induce toxic damage, 100 μl of 1% barium chloride (BaCl2, Sigma Aldrich) was injected unilaterally into the hind limb (9 mice). Mice were treated according to European Guidelines and policies as approved by the University of Turin Ethical Committee.
Semiquantitative estimation (by repeated measures analyzed with ANOVA and Newman-Keuls Multiple Comparison test) of foot damage was performed serially using the following classification: 3=dragging of foot (foot necrosis), 2=no dragging but no plantar flexion (foot damage), 1=plantar flexion but no toe flexion (toe damage), and 0=flexing the toes to resist gentle traction on the tail (no damage)^43.
Gastrocnemius muscle sections from ischemic or normo-perfused limbs were stained with hematoxylin and eosin for histological analysis. The proportion of fibers with central nuclei (regenerating fibers) was measured by MetaMorph software (Life Sciences Research Imaging Systems) in the injured area and the cross-sectional areas of the fibers in the injured and non-injured areas. For IF analysis, muscle sections were processed as described previously^44. The number of cells expressing the indicated markers or CD31 positive vessels was evaluated as previously described^34.
as §4

[3] = tested on: SCs from double KO mice; experiment: In-vitro ischemia of SCs from double KO mice lacking the GHSR1a and ghrelin genes; format: cell-based, C57BL/6J mice lacking the GHSR1a and ghrelin genes
Method: as §1, §2, §3, §4

[4] = tested on: glucose, insulin and lipid metabolisms; conditions: cited from earlier work; for retention of the activity of UAG full length: U.S. Pat. Nos. 8,222,217 and 8,318,664; for smallest fragment retaining UAG activity: earlier patents
[5] = tested on: C2C12 mouse muscular cell line; experiment: ROS production (DCF-DA) in C2C12 cells under oxidative stress; format: cell-based; conditions: 1 μmol/L; stress by hypoxia (1% O2), AGEs, hyperglycemia (25 mM) or H2O2; FIG. 8
Method: Kinetic analysis of ROS production was evaluated by using DCF-DA (5-(and-6)-carboxy-2′,7′-dichlorofluorescein diacetate, 0.5 μmol/L final concentration) (Molecular Probe, Invitrogen) assay. C2C12 cells were cultured with 400 μg/ml Advanced Glycated End-product (AGE) or 25 mM glucose (high glucose HG) for 48 h, H2O2 (100 μM) for 2 h. In parallel experiments C2C12 cells were subjected to hypoxia (DMEM+2% FCS in a 5% CO2-95% N2 humidified atmosphere, yielding to 1% O2 concentrations for 24 h). UAG (1 μmol/L) AZP 531 (1 μmol/L) or AZP-502 (1 μmol/L) was added where indicated.

## Oc1ccc(-c2nc(-c3ccncc3)c(-c3ccc(F)cc3)[nH]2)cc1 [SB202190, reference compound]
[1]; FIG. 5E
  cell-cycle entry of SCs exposed to UAG: blocked cell-cycle entry
[1]; FIG. 5F
  MyoD and myogenin expression in SCs exposed to UAG: prevented MyoD and myogenin expression

## AG: 28 amino acid peptide with an n-octanoyl modification on the Ser3 residue; endogenous ligand of GHSR-1a (GSS(Octanoyl)FLSPEHQRVQQRKESKKPPAKLQPR; UniProt Q9UBU3 24-51, looked up) [reference compound]
[2]; 100 μg/kg i.p. daily
  protection against ischemia-induced damage (overall in vivo effect): failure to detect in vivo effects
[2]; 100 μg/kg i.p. daily from day 0, FIG. 1A
  foot damage (functional score): significantly higher
[2]; 100 μg/kg i.p. daily, FIG. 1B
  capillary density, ischemic vs contralateral control muscles of the same animals: significantly lower capillary density than in contralateral control muscles
[2]; FIG. 3A
  concentration of TBARS in ischemic muscles: Significant increases in the concentration of TBARS
[3]; FIG. 5G
  SC cell-cycle progression: only UAG
[3]; FIGS. 5H, 5I
  p-p38/MAPK, Pax-7, MyoD, Myf5 and myogenin expression: only UAG

## EHQRVQ [UAG (8-13)]
[4]
  retention of the activity of UAG full length: retain the activity of UAG full length on glucose, insulin and lipid metabolisms

## Glu-His-Gln-Arg (EHQR; listed as Homo sapiens) [UAG (8-11)]
[4]
  retention of the activity of UAG full length: retain the activity of UAG full length on glucose, insulin and lipid metabolisms
  smallest fragment retaining UAG activity: smallest UAG fragment to retain UAG activities

## Glu-His-Gln-Arg-Val (EHQRV; listed as Homo sapiens) [UAG (8-12)]
[4]
  retention of the activity of UAG full length: retain the activity of UAG full length on glucose, insulin and lipid metabolisms

## His-Gln-Arg (HQR; listed as Homo sapiens) [UAG (9-11)]
[4]
  retention of the activity of UAG full length: retain the activity of UAG full length on glucose, insulin and lipid metabolisms

## His-Gln-Arg-Val (HQRV; listed as Homo sapiens) [UAG (9-12)]
[4]
  retention of the activity of UAG full length: retain the activity of UAG full length on glucose, insulin and lipid metabolisms
  smallest fragment retaining UAG activity: smallest UAG fragment to retain the biological activity of UAG

## SPEHQRVQ [UAG (6-13)]
[5]
  protection against oxidative stress (ROS production): have a protective effect on C2C12 cells against oxidative stress
[4]
  retention of the activity of UAG full length: retain the activity of UAG full length on glucose, insulin and lipid metabolisms

## Ser-Pro-Glu-His-Gln-Arg-Val-Gln (cycl) (SPEHQRVQ; also: cyclic, closure not given here; listed as Homo sapiens) [UAG(6-13)cyclic]
[5]
  protection against oxidative stress (ROS production): have a protective effect on C2C12 cells against oxidative stress
